Earlier results, collected in patent US20250093362A1, “HIGH-THROUGHPUT ENGINEERING OF MOLECULAR GLUES” (Frontier Medicines Corporation, priority 2021, published 2025).

Target: CDK12-cyclin K and CUL4 adaptor protein DDB1 (Homo sapiens, UniProt Q16531+Q9NYV4)
Details: analog of CR8 lacking a single methylene group; Nat. 2020, 585 (7824), 293

CDK12-cyclin K and CUL4 adaptor protein DDB1, sequence (Q9NYV4 713-1052 limits assumed): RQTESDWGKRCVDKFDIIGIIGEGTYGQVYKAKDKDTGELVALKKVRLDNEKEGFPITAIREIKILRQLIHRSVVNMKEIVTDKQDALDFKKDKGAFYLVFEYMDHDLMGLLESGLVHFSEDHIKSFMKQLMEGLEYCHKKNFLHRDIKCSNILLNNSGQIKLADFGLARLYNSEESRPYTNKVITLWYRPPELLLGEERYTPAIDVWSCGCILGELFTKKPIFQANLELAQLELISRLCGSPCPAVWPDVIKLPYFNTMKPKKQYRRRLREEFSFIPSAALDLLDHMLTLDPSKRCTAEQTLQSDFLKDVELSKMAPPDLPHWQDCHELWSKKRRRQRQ
CDK12-cyclin K and CUL4 adaptor protein DDB1, sequence (O75909 1-267 partner limits assumed): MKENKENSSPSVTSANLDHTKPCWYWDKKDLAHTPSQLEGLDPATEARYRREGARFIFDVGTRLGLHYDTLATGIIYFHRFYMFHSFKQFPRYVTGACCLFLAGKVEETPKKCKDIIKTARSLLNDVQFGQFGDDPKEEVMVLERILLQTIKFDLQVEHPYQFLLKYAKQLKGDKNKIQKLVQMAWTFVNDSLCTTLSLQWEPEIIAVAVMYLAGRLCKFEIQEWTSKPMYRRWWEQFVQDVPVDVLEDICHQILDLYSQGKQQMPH
CDK12-cyclin K and CUL4 adaptor protein DDB1, sequence (Q16531 whole entry): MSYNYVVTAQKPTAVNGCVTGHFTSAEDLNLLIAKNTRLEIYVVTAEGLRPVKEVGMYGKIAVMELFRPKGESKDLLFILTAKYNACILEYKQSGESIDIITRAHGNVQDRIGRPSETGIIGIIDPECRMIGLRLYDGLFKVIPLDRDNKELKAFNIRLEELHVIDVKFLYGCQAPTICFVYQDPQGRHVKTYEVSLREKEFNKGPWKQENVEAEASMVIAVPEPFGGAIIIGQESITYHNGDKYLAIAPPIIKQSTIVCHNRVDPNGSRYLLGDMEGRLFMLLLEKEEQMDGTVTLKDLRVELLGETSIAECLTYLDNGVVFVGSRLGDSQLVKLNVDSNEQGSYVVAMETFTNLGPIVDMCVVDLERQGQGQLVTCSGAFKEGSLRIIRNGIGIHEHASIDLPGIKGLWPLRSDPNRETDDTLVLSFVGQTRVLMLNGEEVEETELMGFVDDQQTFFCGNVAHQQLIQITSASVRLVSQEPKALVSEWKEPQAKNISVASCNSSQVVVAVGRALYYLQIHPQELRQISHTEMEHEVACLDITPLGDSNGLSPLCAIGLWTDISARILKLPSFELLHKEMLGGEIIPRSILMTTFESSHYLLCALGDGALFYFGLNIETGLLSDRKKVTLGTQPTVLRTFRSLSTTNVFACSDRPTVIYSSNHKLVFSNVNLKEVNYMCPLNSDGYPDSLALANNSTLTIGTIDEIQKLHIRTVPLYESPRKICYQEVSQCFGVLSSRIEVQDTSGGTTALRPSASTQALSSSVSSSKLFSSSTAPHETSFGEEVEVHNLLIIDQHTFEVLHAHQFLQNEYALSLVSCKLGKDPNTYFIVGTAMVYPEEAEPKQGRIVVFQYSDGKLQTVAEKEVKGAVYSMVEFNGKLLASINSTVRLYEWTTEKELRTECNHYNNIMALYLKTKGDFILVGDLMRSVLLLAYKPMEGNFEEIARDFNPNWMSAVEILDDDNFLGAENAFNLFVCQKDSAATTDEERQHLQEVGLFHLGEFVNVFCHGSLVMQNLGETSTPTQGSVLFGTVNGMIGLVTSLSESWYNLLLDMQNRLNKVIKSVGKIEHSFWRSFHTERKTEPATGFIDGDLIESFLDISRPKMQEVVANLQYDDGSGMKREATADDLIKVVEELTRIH

CC[C@H](CO)Nc1nc(Nc2ccc(-c3ccccn3)cc2)c2ncn(C(C)C)c2n1 [DRF053]
driving formation of the ternary complex of CDK12-cyclin K and DDB1: ineffectual
